Here are results for 1 compound from patent US8158830B1, “Integrated process for the preparation of tetraaminobenzene” (E. I. du Pont de Nemours and Company, priority 2007, dated 2012).

The data set is described as follows: solubility of TAB.4HCl in water. The conditions noted are these: water at 25° C. The format is physicochemical. The protocol: The reaction mixture containing the precipitated TAB salt is then cooled to about 5° C. to about 15° C. and stirred, then filtered. The TAB salt is then washed 44. It may be washed with deaerated aqueous acid, such as HCl (33%), and then optionally with deaerated ethanol or methanol to produce a wet cake material; the optional ethanol or methanol wash can then be recycled 48, 47, and a purge is drawn to prevent accumulation. Using an agitated filter unit during the wash procedures can allow for a reduction of the wash volumes. Under such circumstances, using small amounts of cold water (e.g. about 5° C.) instead of the aqueous acid would also be effective as the TAB salt would have lower solubility in the cold water than it would have in water at about room temperature (e.g. 25° C.). For example, the solubility of TAB.4HCl in water at 25° C. is about 15 wt %.

Consider `Nc1cc(N)c(N)cc1N` [TAB.4HCl, 1,2,4,5-tetraminobenzene], for which the solubility in water result is listed as “about 15 wt %”.
